Like-named read-outs stand apart in the source and are kept apart here.
Assays:
[1] = target: T1, bovine trypsin (Bos taurus, UniProt P00760); test: Proteinase inhibition assay, bovine trypsin; type: biochemical
T1 sequence (P00760 24-246): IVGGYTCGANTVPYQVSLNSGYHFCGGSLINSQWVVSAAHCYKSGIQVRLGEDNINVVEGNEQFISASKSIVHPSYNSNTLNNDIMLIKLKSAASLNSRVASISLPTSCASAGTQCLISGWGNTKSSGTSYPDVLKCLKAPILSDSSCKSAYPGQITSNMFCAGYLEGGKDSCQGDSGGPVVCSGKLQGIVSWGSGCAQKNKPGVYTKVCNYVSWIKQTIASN
Method: (§1) Assays of human α-thrombin and bovine trypsin were performed at 25° C. in 0.05M TRIS buffer pH 7.4, 0.15M NaCl, 0.1% PEG. Trypsin assays also contained 1 mM CaCl2.
In assays wherein rates of hydrolysis of a p-nitroanilide (pna) substrate were determined, a Thermomax 96-well plate reader was used was used to measure (at 405 nm) the time dependent appearance of p-nitroaniline. sar-PR-pna was used to assay human α-thrombin (Km =125 μM) and bovine trypsin (Km =125 μM). "Sar" is the three letter abbreviation for the amino acid sarcosine (N-methylglycine). p-Nitroanilide substrate concentration was determined from measurements of absorbance at 342 nm using an extinction coefficient of 8270 cm^-1 M^-1.
(§2) Times required to achieve equilibration between enzyme and inhibitor were determined in control experiments. Initial velocities of product formation in the absence (Vo) or presence of inhibitor (Vi) were measured. Assuming competitive inhibition, and that unity is negligible compared Km /[S], [S]/e, and [I]/e (where [S], [I], and e respectively represent the total concentrations, of substrate, inhibitor and enzyme), the equilibrium constant (Ki) for dissociation of the inhibitor from the enzyme can be obtained from the dependence of Vo /Vi on [I] shown in equation 1.
Using the assays described above, the following additional embodiments of the invention were evaluated and shown to be selective for inhibiting thrombin. The constants were determined at pH 7.4 in buffer containing 0.05M Tris, 0.15M NaCl, 0.1% PEG-8000 at room temperature.

[2] = Oral bioavailability in dogs; type: in vivo; settings: dog, oral (gastric lavage), plasma
Method: (§3) Concentration was determined in animal plasma after oral (gastric lavage) administration.
In dogs, the test agent was administered intravenously as a bolus or orally by gastric lavage. For intravenous studies, the sterile agent is dissolved in sterile 0.9% saline and administered via 19 g butterfly, usually via the saphenous vein. For oral studies, the sterile agent was dissolved in sterile water and administered via a feeding tube. Blood samples (5 cc each) were collected with a plastic syringe containing 3.8% sodium citrate via venipuncture (at sites other than that of drug administration) for drug plasma levels and thrombin clotting time assay. Dogs were allowed to recover 14 days before being used again in a similar protocol.
(§4) Thrombin inhibitor concentrations in plasma were determined by the inactivation of a known amount of thrombin (where [thrombin]>>Ki of inhibitor) from an aliquot of acid-neutralized rat plasma. 0.25 ml of rat platelet poor plasma was mixed with 25 μl of 3M perchloric acid. The sample was centrifuged (14,000×g for 10 minutes) and 0.2 ml of the supernatant was neutralized with 0.43 ml of 1M TrisB 0.15M NaCl/0.1% PEG 8000 pH 7.8. 50-100 μl of acid-neutralized rat plasma was mixed with 50-100 μl of 0.03-3 μM thrombin. After equilibration, 5-10 μl of 5 mM Sar-Pro-Arg-pna (for <0.1 μM thrombin) or Spectrozyme PCa (for >0.1 μM thrombin) was added. […]

[3] = target: plasmin (Pl) (Homo sapiens, UniProt P00747); test: Chromogenic assay, plasmin; type: biochemical; settings: Table 3
Chain of plasmin (Pl) (P00747 581-810 limits assumed, species assumed): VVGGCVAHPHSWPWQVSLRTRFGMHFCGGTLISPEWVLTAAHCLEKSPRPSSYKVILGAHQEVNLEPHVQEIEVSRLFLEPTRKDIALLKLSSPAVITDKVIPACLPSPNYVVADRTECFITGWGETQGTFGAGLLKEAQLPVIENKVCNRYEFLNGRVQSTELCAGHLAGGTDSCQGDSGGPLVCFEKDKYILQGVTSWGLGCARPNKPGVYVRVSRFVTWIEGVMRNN
Chain of plasmin (Pl) (P00747 97-580 limits assumed, species assumed): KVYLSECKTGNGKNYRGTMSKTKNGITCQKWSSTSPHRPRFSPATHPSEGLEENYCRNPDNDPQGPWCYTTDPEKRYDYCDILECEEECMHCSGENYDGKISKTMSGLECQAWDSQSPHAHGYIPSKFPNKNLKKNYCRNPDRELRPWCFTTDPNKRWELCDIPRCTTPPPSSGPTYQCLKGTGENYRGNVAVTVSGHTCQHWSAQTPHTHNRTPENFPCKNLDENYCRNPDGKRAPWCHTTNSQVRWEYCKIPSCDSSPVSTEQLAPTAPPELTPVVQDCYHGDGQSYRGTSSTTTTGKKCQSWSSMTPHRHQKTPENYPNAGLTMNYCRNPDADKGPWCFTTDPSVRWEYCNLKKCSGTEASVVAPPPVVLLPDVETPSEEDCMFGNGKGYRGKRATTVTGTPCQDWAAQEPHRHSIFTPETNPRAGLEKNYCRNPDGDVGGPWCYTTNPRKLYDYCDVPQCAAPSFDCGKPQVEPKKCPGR

[4] = target: T2, plasma kallikrein (p-Kal) (Homo sapiens, UniProt P03952); test: Chromogenic assay, plasma kallikrein; type: biochemical; settings: Table 3
T2 construct: plasma kallikrein (p-Kal)
T2 sequence (P03952 391-638 limits assumed, species assumed): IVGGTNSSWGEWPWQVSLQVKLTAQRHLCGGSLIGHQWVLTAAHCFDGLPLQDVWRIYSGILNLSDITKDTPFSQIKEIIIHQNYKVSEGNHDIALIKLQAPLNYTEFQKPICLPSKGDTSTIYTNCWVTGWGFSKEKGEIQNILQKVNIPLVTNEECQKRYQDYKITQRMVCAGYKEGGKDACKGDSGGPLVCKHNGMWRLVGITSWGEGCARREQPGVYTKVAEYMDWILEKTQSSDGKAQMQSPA
T2 sequence (P03952 20-390 limits assumed, species assumed): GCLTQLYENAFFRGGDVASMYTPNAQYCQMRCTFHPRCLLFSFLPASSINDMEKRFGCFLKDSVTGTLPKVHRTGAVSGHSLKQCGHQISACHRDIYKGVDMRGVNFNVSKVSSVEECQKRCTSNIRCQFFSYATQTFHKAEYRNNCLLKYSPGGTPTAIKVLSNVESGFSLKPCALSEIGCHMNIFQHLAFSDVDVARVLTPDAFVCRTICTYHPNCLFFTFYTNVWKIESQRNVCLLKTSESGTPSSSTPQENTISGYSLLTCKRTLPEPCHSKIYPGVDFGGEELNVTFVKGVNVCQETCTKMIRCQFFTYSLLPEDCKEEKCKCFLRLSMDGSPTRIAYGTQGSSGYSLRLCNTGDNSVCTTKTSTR

[5] = Oral bioavailability in rats; type: in vivo; settings: rat, oral (gastric lavage), plasma
Method: as §3
Rats were anesthetized and instrumented with indwelling left jugular vein and left carotid artery catheters for test agent administration and for serial blood sampling, respectively. One day after instrumentation, blood samples were obtained before saline or inhibitor administration and at increasing time points after the oral administration.
Thrombin inhibitor concentrations in plasma were determined by the inactivation of a known amount of thrombin (where [thrombin]>>Ki of inhibitor) from an aliquot of acid-neutralized rat plasma. 0.25 ml of rat platelet poor plasma was mixed with 25 μl of 3M perchloric acid. The sample was centrifuged (14,000×g for 10 minutes) and 0.2 ml of the supernatant was neutralized with 0.43 ml of 1M TrisB 0.15M NaCl/0.1% PEG 8000 pH 7.8. 50-100 μl of acid-neutralized rat plasma was mixed with 50-100 μl of 0.03-3 μM thrombin. After equilibration, 5-10 μl of 5 mM Sar-Pro-Arg-pna (for <0.1 μM thrombin) or Spectrozyme PCa (for >0.1 μM thrombin) was added. The observed inhibited velocity was compared to inhibited velocities from a standard curve generated from rat plasma containing known amounts of inhibitor treated in an identical manner. The table below summarizes the results from these studies.

[6] = tested on: FeCl3 induced arterial thrombosis in rats; test: Rat ferric chloride assay; type: in vivo
Method: In the assay, male Sprague-Dawley rats (body weights 200-350 grams) were anesthetized with dial-urethane solution (0.1 ml/100 gm body weight i.p.), and a lateral tail vein was cannulated with a 23 gauge needle connected to a 12 inch length of PE50 robing. The robing was attached to a 3-way valve by a tubing adapter. Saline (control) or test compound, as appropriate, was administered via the tail vein catheter. A tracheostomy was performed with a 0.75 inch length of PE205 tubing. The right carotid artery was exposed and a 1.3 mm diameter Doppler flow probe was placed on the vessel. Body temperature was maintained at 37° C. using a heat lamp.
Rats (8-10/group) were randomized to continuous intravenous infusions of saline or test compound administered via the tail vein at a rate of 0.028 ml/min. Treatment infusions were initiated 60 min before the placement of a 3 mm square piece of Whatman No. 1 filter paper saturated with 35% FeCl3 onto the exposed carotid artery distal to the flow probe. […] Time to occlusion was defined as the time from application of FeCl3 to thrombotic occlusion of the vessel.

[7] = target: activated protein C (APC) (Homo sapiens, UniProt P04070); test: Chromogenic assay, activated protein C; type: biochemical; settings: Table 3
Chain of activated protein C (APC) (P04070 212-461 limits assumed): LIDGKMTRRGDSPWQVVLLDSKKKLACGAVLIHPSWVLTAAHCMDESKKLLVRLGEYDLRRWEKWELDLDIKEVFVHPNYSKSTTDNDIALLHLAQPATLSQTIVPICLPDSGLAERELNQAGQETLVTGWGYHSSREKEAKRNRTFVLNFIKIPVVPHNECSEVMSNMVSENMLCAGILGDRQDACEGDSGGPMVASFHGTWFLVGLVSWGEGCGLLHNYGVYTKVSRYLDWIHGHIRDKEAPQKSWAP
Chain of activated protein C (APC) (P04070 43-197 limits assumed): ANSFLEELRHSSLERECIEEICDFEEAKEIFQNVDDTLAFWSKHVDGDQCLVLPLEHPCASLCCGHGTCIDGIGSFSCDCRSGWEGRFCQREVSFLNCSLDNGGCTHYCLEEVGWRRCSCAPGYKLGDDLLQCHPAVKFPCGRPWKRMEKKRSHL

[8] = target: tissue plasminogen activator (t-PA) (Homo sapiens, UniProt P00750); test: Chromogenic assay, tissue plasminogen activator; type: biochemical; settings: Table 3, read-out: Ki (nM) tPA
Chain of tissue plasminogen activator (t-PA) (P00750 36-562, species assumed): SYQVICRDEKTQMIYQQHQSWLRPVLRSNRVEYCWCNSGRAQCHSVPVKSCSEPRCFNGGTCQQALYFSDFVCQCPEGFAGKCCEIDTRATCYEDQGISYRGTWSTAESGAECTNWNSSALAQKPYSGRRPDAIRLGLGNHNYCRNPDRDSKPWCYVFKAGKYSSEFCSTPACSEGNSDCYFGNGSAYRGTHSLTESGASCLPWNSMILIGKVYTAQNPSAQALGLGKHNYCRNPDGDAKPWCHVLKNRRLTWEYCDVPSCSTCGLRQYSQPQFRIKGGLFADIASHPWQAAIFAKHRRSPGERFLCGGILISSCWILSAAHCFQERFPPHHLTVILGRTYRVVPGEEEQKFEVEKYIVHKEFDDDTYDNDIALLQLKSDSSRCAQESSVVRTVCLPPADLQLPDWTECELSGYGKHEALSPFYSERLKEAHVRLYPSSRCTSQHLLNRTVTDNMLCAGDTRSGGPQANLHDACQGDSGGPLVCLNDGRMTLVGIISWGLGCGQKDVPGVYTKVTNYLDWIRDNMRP

[9] = Oral bioavailability in rhesus monkeys; type: in vivo, rhesus monkey; settings: oral (nasogastric tube), plasma
Method: as §3
In monkeys, the test agent was administered intravenously as a bolus or orally by pediatric nasogastric tube. For intravenous studies, the sterile agent was dissolved in sterile 0.9% saline and administered via 21 g butterfly, usually via the brachial vein. For oral studies, the sterile agent was dissolved in sterile water and administered via a nasogastric tube. Blood samples (4 cc each) were collected with a plastic syringe containing 3.8% sodium citrate via venipuncture (at sites other than that of drug administration) for drug plasma levels and thrombin clotting time assay. The monkeys were given water ad lib. Monkeys were allowed to recover 14 days before being used again in a similar protocol.
as §4, with “thrombin.” for “thrombin. After equilibration, 5-10 μl of 5 mM Sar-Pro-Arg-pna (for <0.1 μM thrombin) or Spectrozyme PCa (for >0.1 μM thrombin) was added.”

[10] = target: T3, Factor Xa (fXa) (Homo sapiens, UniProt P00742); test: Chromogenic assay, Factor Xa; type: biochemical; settings: Table 3
T3 construct: Factor Xa (fXa), plasma kallikrein (p-Kal), plasmin (Pl)
T3 sequence (P00742 235-488 limits assumed): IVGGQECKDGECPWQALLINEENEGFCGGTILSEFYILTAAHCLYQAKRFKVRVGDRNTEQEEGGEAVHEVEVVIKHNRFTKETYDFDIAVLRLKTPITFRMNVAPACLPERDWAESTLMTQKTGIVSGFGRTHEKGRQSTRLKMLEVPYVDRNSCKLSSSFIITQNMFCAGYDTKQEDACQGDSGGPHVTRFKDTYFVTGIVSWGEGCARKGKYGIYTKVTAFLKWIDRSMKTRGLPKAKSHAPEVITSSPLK
T3 sequence (P00742 41-179 limits assumed): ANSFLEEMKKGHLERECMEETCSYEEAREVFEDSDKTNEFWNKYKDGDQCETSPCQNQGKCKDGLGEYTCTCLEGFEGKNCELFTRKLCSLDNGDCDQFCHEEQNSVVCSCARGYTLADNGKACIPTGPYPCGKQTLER

[11] = target: human α-thrombin (Homo sapiens, UniProt P00734); test: Proteinase inhibition assay, human α-thrombin; type: biochemical; settings: for Ratio: Ki trypsin / Ki thrombin
Method: as §1
"Sar" is the three letter abbreviation for the amino acid sarcosine (N-methylglycine). p-Nitroanilide substrate concentration was determined from measurements of absorbance at 342 nm using an extinction coefficient of 8270 cm^-1 M^-1.
Concentrations of stock solutions of Z-GPR-afc were determined from measurements of absorbance at 380 nm (extinction coefficient=12600 cm^-1 M^-1) of the 7-amino-4-trifluoromethyl coumarin produced upon complete hydrolysis of an aliquot of the stock solution by thrombin.
as §2
The constants were determined at pH 7.4 in buffer containing 0.05M Tris, 0.15M NaCl, 0.1% PEG-8000 at room temperature.

[12] = Table 2, pH 7.4, 0.05M Tris, 0.15M NaCl, 0.1% PEG-8000, room temperature, read-out: Ki (nM) Trypsin
[13] = Table 2, pH 7.4, 0.05M Tris, 0.15M NaCl, 0.1% PEG-8000, room temperature, read-out: Ki (nM) Thrombin
[14] = Table 1, 25° C., 0.05M TRIS pH 7.4, 0.15M NaCl, 0.1% PEG, 1 mM CaCl2, read-out: Ki (μM) Trypsin
[15] = Table 1, 25° C., 0.05M TRIS pH 7.4, 0.15M NaCl, 0.1% PEG, read-out: Ki (μM) Thrombin

Row | Structure (SMILES) | Ki [3] [nM] | Ki [4] [nM] | Ki [7] [nM] | Ki [8] [nM] | Ki [10] [nM] | Ki [1, 12] [µM] | Ki [11, 13] [nM] | also measured
1 | CNC(=O)C(=O)C(NC(=O)C1CCCN1C(=O)C(Cc1ccccc1)NC)C1CCC(N)CC1 [4-4, H-NMe-D.-Phe-Pro-t-L-Acg.PSI.[COCO]--NHMe] | > 10000 | > 10000 | > 10000 | > 10000 | > 10000 | – | – | Ki ([1]; Table 1, 25° C., 0.05M TRIS pH 7.4, 0.15M NaCl, 0.1% PEG, 1 mM CaCl2, listed as drawing 22, read-out: Ki (μM) Trypsin): 1.15 µM; % bioavailable [2]: 8%; % bioavailable [5]: 5%; Incidence of occlusion ([6]; 1 μg/kg/min i.v. infusion): 3/4; Minutes to occulsion of those occluding ([6]; 1 μg/kg/min i.v. infusion): 21 min; Incidence of occlusion ([6]; 5 μg/kg/min i.v. infusion): 2/4; Minutes to occulsion of those occluding ([6]; 5 μg/kg/min i.v. infusion): 18 to 20 min; Incidence of occlusion ([6]; 10 μg/kg/min i.v. infusion): 0/4; % bioavailable [9]: 5%
2 | CNC(=O)C(=O)C(NC(=O)C1CCCN1C(=O)CCC1CCCCC1)C1CCC(N)CC1 (stereo not shown) [xiii] | > 10000 | > 10000 | > 10000 | > 10000 | > 10000 | 4 | 2.2 | –
3 | CNC(=O)C(=O)C(NC(=O)C1CCCN1C(=O)C(Cc1ccc2ccccc2c1)NC)C1CCC(N)CC1 (stereo not shown) [xiv] | > 10000 | > 10000 | > 10000 | > 10000 | 9000 | 2.1 | 0.09 | –
4 | CNC(=O)C(=O)C(NC(=O)C1CCCN1C(=O)C(Cc1ccc(Cl)c(Cl)c1)NC)C1CCC(N)CC1 (stereo not shown) [xii] | > 10000 | > 10000 | > 10000 | > 10000 | 2300 | 0.66 | 0.025 | –
5 | CNC(=O)C(=O)C(CC1CCC(N)CC1)NC(=O)C1CCCN1C(=O)C(Cc1ccccc1)NC (stereo not shown) [vi] | – | – | – | – | – | – | – | Ki [1, 14]: 1.44 µM; Ki [11, 15]: 52 nM; Ratio ([11]; Table 1): 28
6 | CNC(Cc1ccccc1)C(=O)N1CCCC1C(=O)NC(C(=O)C(=O)N1CCC1)C1CCC(N)CC1 (mixture of isomers) [xviii] | > 10000 | > 10000 | > 10000 | > 10000 | > 10000 | 0.76 | 0.04 | –
7 | CNC(Cc1ccccc1)C(=O)N1CCCC1C(=O)NC(C(=O)C(=O)NCc1ccccc1)C1CCC(N)CC1 (mixture of isomers) [xvi] | > 10000 | > 10000 | > 10000 | > 10000 | > 10000 | 0.12 | 0.6 | –
8 | CNC(=O)C(=O)C(NC(=O)C1CCCN1C(=O)CCc1ccc(Cl)c(Cl)c1)C1CCC(N)CC1 (stereo not shown) [xi] | > 10000 | > 10000 | > 10000 | > 10000 | > 10000 | > 10 | 0.4 | –
9 | CNC(Cc1ccccc1)C(=O)N1CCCC1C(=O)NC(C(=O)C(=O)O)C1CCC(N)CC1 (racemic) [3-3, H-NMe-D-Phe-Pro-t-DL-AcgY[COCO]--OH] | > 10000 | 7000 | > 10000 | > 10000 | > 10000 | – | – | Ki [1, 14]: 0.051 µM; Ki [11, 15]: 0.05 nM; Ratio ([11]; Table 1): 1000; Incidence of occlusion ([6]; 10 μg/kg/min i.v. infusion): 3/4; Minutes to occulsion of those occluding ([6]; 10 μg/kg/min i.v. infusion): 22 to 24 min; Incidence of occlusion ([6]; 20 μg/kg/min i.v. infusion): 0/4; Incidence of occlusion ([6]; 50 μg/kg/min i.v. infusion): 0/4
10 | CNC(=O)C(=O)C(NC(=O)C1CCCN1C(=O)CC(c1ccccc1)c1ccccc1)C1CCC(N)CC1 (mixture of isomers) [xv] | > 10000 | > 10000 | > 10000 | > 10000 | > 10000 | 2 | 0.03 | –
11 | CNC(=O)C(=O)C(NC(=O)C1CCCN1C(=O)C(CC1CCCCC1)NC)C1CCC(N)CC1 (stereo not shown) [x] | 6000 | > 10000 | > 10000 | > 10000 | 3000 | 0.31 | 0.07 | –
12 | CNC(Cc1ccccc1)C(=O)N1CCCC1C(=O)NC(C(=O)C(=O)NC1CC1)C1CCC(N)CC1 (mixture of isomers) [xvii] | > 10000 | 9000 | > 10000 | > 10000 | > 10000 | 0.12 | 0.07 | –
13 | CNC(=O)C(=O)C(NC(=O)C1CCCN1C(=O)C(Cc1ccccc1)NC)C1CCC(N)CC1 [4-3, H-NMe-D-Phe-Pro-t-D-Acg.PSI.[COCO]--NHMe] | – | – | – | – | – | – | – | Ki ([1]; Table 1, 25° C., 0.05M TRIS pH 7.4, 0.15M NaCl, 0.1% PEG, 1 mM CaCl2, listed as drawing 21, read-out: Ki (μM) Trypsin): 7 µM
14 | CNC(=O)C(=O)C(NC(=O)C1CCCN1C(=O)CCc1ccccc1)C1CCC(N)CC1 (mixture of isomers) [ix] | > 10000 | > 10000 | > 10000 | > 10000 | > 10000 | > 10 | 4 | –

Source: patent US5672582A, “Thrombin inhibitors” (Merck & Co., Inc., priority 1994, dated 1997)
